We go through seven compounds from patent US20070072954A1, “Novel tetraoxaspiroalkanes and methods of use with organosilicon monomers in polyerizable compositions” (Curators of the University of Missouri, priority 2005, published 2007).

By melting point is commonly meant the temperature, or range, at which the solid turns liquid.

Data set [1] in a line: Photoreactivity assessment (photo DSC enthalpy of polymerization). The data set is classed as physicochemical. The settings on record: for ΔHexp / ΔHcalc / Net Enthalpy ΔH: 3 wt % PI; for ΔH (experimental)/ΔH (calculated): calculated for an inert diluent; for Exotherm Peak Maximum / Net Enthalpy ΔH: TOSU monomers 20 mol % in SIL-MIX, SIL-MIX alone; for Net Enthalpy ΔH: experimental, 1 wt % CQ, 0.1 wt % ED, 400-500 nm, 10 min, 25° C., n=1. The source says:
In this example, the photoreactivity of various combinations of SIL-MIX alone or SIL-MIX with 3,9-diethyl-3,9-bis(allyloxymethyl)-1,5,7,11-tetraoxaspiro[5.5]undecane (DEBAOM-1,5,7,11-TOSU) 1; 3,9-bis(3-trimethylsilylpropyl)-1,5,7,11-tetraoxaspiro[5.5]undecane (BTMSP-1,5,7,11-TOSU) 2; 3,9-bis(allyloxymethyl)-2,4,8,10-tetraoxaspiro[5.5]undecane (BAOM-2,4,8,10-TOSU) 3; 3,9-bis(2-trimethylsilylethyl)-[…] (BTMSE-2,4,8,10-TOSU) 4; 3,3-diethyl-11,12-epoxy-1,5,7,16-tetraoxadispiro[5.2.5.2]hexadecane (DECHE-1,5,7,11-TOSU) 5; and 3,9-diethyl-3,9-bis(3-trimethylsilylpropyloxymethyl)-1,5,7,11-tetraoxaspiro[5.5]-undecane (DEBTMSPOM-1,5,7,11-TOSU) 6 was investigated. The photoreactivity assessments (n=1) were made using an EXFO Novacure light curing unit interfaced with a Perkin-Elmer Diamond DSC. The experimental conditions were as follows: 25° C.; N2 atmosphere; 400-500 nm light; 3 mm quartz light guides; output: 500 mW/cm measured 15 mm from sample surface. The sample weights were 15-18 mg. Standard A1 pans were used. An empty pan was placed in the reference position. Irradiation time was for 10 minutes following a 1 minute equilibration. After the initial run, the sample was re-irradiated for an additional 10 minutes. This second curve was subtracted from the initial exotherm curve to zero out artifacts due to beginning and ending of irradiation, and to compensate for the heat capacity differences between the sample pan and empty reference pan. Integrations were from time t=1.1 (lamp shutter opened) min to 11.1 min (lamp shutter closed).
In this example, reaction mixtures containing 0 or 20 mol % of TOSU monomers 1, 2, 3, 4, and 5 in SIL-MIX were formulated with 4.1 wt % photoinitiator system (3 wt % PI; 1 wt % CQ; 0.1 wt % ED). Formulated mixtures were heated for 5 minutes on an oil bath at about 60° C. and stirred magnetically to aid dissolution of the photoinitiator system and inventive monomer. Formulations were prepared and stored away from ambient light. Mixtures were tested for photoreactivity the same day as prepared.
The effect of doubling the photoinitiator (PI) content from 3 wt % to 6 wt % was also determined for selected mixtures. As in Example 7(a) above, reaction mixtures (about 2 g) were formulated with 4.1 wt % photoinitiator system (3 wt % PI; 1 wt % CQ; 0.1 wt % ED) except where noted. Formulated mixtures were heated for 5 minutes on an oil bath @ 60° C. and stirred magnetically to dissolve the photoinitiator system and 6 (DEBTMSPOM-1,5,7,11-TOSU) when included. Formulations were prepared and stored away from ambient light and tested the same day as prepared.

Data set [2] can be described thus: Oxirane ring-opening (oxirane conversion) via FTIR. The data set is classed as physicochemical. The settings on record: thin film, 10 min irradiation. As to the method: In this example, the oxirane ring-opening of monomers 1 (DEBAOM-1,5,7,11-TOSU) or 6 (DEBTMSPOM-1,5,7,11-TOSU) was investigated using FTIR. All FTIR spectra were acquired using a Perkin-Elmer BX II FTIR spectrophotometer. The identification of the location of the oxirane absorption band in the IR spectrum of Siloranes was achieved by methanolysis. A sample was dissolved in CH2Cl2 and exposed to CH30H in the presence of a catalytic amount of zinc tetrafluoroborate hydrate overnight. The mixture was evaporated onto a salt plate. An FTIR spectrum was acquired and compared to pre-exposure spectrum. There was a significant decrease in the oxirane absorption region at 882-886 cm^−1. This band was selected as the absorption to monitor for following the oxirane ring-opening reaction.
Analytical samples contained siloranes I, II, or SIL-MIX with and without 50 mol % of monomer 1 (DEBAOM-1,5,7,11-TOSU) or 6 (DEBTMSPOM-1,5,7,11-TOSU). A thin film was brushed onto a salt plate. Irradiation (10 minutes at 23 to 25° C. and R. H.=40-45%) was provided by a 3M XL2500 curing light positioned 1-cm above the sample surface. The light intensity was measured at 360 mW/cm^2 on the sample surface. The oxirane band absorption and an internal reference band absorption were assessed before and after irradiation. Oxirane conversion (alpha) was calculated according to equation (1) by Pan et al., Polym Int 2000, 49, 74. [formula] where subscripts 0 and t represent pre-irradiation and post-irradiation respectively.

The nature of data set [3]: Photopolymerization stress measurement (tensilometer). The data set is classed as physicochemical. As to conditions: for Polymerization Stress: mean(std. dev.), n=3, TOSU monomers 20 mol % in SIL-MIX, BT and SIL-MIX alone. On the procedure: In this example, the photopolymerization stress of the monomers of the present invention was investigated. Stress generated during photopolymerization was measured (n=3) using an electromagnetic mechanical testing machine (Enduratec Model 3200, Bose Corp., Minnetonka, Minn.) adapted to be a tensilometer. See Feilzer et al., Dent. Mater. […] Briefly, two identical glass rods, 5 mm in diameter, were placed opposing one another and separated by 1 mm (C-factor=2.5). A displacement transducer (LVDT, Enduratec, 0.1 μm resolution, range ±1 mm) was mounted on one glass rod and was touching a plate attached to the opposing glass rod. The distance between the mounts on the opposing glass rods was about 9 mm (including the 1 mm separation between the rods). Samples placed between the glass rods were cured by irradiation (500 mW/cm^2), while under LVDT displacement control. Load-displacement data were collected at 200 Hz for 30 mins. […] From the load-displacement data, peak loads were obtained and normalized by the original area to obtain the polymerization stresses.

The nature of data set [4]: Mechanical properties measurement (3-point bend tests). The data set is classed as physicochemical. The settings on record: for Flexural elastic modulus / Work of Fracture / Flexural ultimate strength: 24-h, mean(std. dev.), n=6, BT and SIL-MIX alone; for Flexural ultimate strength: the values are: Ultimate (flexural) strength. On the procedure: In this example, the elastic modulus, ultimate strength, and work of fracture were determined for the monomers of the present invention. […] The resin was injected into the mold and cured by irradiation (500 mW/cm^2) followed by storage in the dark for 4 hours and 24 hours before mechanical tests were conducted. Three point bending tests were conducted using an electromagnetic mechanical testing machine (Enduratec Model 3200) with a 20-mm span and at a crosshead displacement rate of 0.5mm/ min at room temperature (25° C.). Load-displacement data were collected at 100 Hz. […] Flexural ultimate strength was determined from the peak loads and work of fracture was determined from the area under the stress-strain curve.

Where [5] appears, read: 20 mol % in SIL-MIX, Dunnett's test p=0.05.
The mark [6] stands for this setting: TOSU monomers 20 mol % in SIL-MIX.

Marks after values point to notes of the source that are not given here.

For the compound `C[Si](CCC1CCC2OC2C1)(CCC1CCC2OC2C1)c1ccccc1` (centres unmarked) [PH-SIL, methylbis[2-(7-oxabicyclo[4.1.0]hept-3-yl)ethyl]phenylsilane, reference compound], in data set [1] (100% silorane), the ΔHexp is -208 J/g. Moreover, the “Oxirane Conversion” value in data set [2] (silorane without comonomer) came out at 31%.
For `C=CCOCC1(CC)COC2(OC1)OCC(CC)(COCC=C)CO2` (centres unmarked) [Monomer 1, 3,9-diethyl-3,9-bis(allyloxymethyl)-1,5,7,11-tetraoxaspiro[5.5]undecane], in data set [1] (20 mol % in SIL-MIX), the ΔHexp is -124 J/g and the “ΔH (experimental)/ΔH (calculated)” value is reported as 80%. Also, the ΔHexp in data set [1] (50 mol % in PH-SIL) was -78 J/g. In addition, in data set [1] (calculated for inert diluent instead of TOSU at 20 mol %), the ΔHcalc was -154 J/g. In data set [1] (calculated for inert diluent instead of TOSU at 50 mol % in PH-SIL), the ΔHcalc is -104 J/g. In addition, the “experimental ΔH as % of the calculated ΔH” value in data set [1] (20% in SIL-MIX) is 81%. In addition, the “experimental value as % of the calculated value (ΔH)” value in data set [1] (50% in Ph-Sil) is on record as 75%. In data set [1], the “Exotherm Peak Maximum” value amounted to 14 s and the “Net Enthalpy ΔH” value is reported as −116^b J/g. Moreover, in data set [2] (comonomer 50 mol % in PH-SIL (I)), the “Oxirane Conversion” value is on record as 36%. The “Oxirane Conversion” value in data set [2] (comonomer 50 mol % in TET-SIL (II)) was found to be 27%. In addition, the “Polymerization Stress” value in data set [3] is on record as 0.17 (0.06)* N/mm^2. In addition, in data set [4] (setting [5]), the “elastic modulus values compared with the methacrylate control (BT)” value was “significantly lower” and the “ultimate strength values compared with the methacrylate control (BT)” value is recorded as “significantly lower”. In addition, in data set [4] (setting [6]), the Flexural elastic modulus stood at 2.2 GPa, the “Work of Fracture” value is given as 5.82 (2.02) kJ/m^2 and the Flexural ultimate strength is 84.6 MPa.
Take `C[Si](C)(C)CCC1OCC2(CO1)COC(CC[Si](C)(C)C)OC2` (centres unmarked) [Monomer 4, 3,9-bis(2-trimethylsilylethyl)-2,4,8,10-tetraoxaspiro[5.5]undecane]: in data set [1] (20 mol % in SIL-MIX), the “enthalpies above those calculated for addition of an inert diluent” value was 17% and the “ΔH (experimental)/ΔH (calculated)” value is listed as 117%. For the same compound, in data set [1], the “Exotherm Peak Maximum” value is 17 s and the “Net Enthalpy ΔH” value was −170^b J/g. In data set [3] (20 mol % in SIL-MIX), this compound registered a Photopolymerization stress reduced of 40%. In data set [3], the “Polymerization Stress” value is listed as 6.90 (1.76)* N/mm^2. In addition, in data set [4] (setting [5]), the “ultimate strength values compared with the methacrylate control (BT)” value is listed as “significantly lower”. For the same compound, in data set [4] (setting [6]), the Flexural elastic modulus came out at 2.36 GPa, the “Work of Fracture” value was 5.63 (1.82) kJ/m^2 and the Flexural ultimate strength amounted to 92.2 MPa.
On to `CCC1(CC)COC2(OC1)OCC1(CCC3OC3C1)CO2` (centres unmarked) [Monomer 5, 3,3-diethyl-11,12-epoxy-1,5,7,16-tetraoxadispiro[5.2.5.2]hexadecane], for which the melting point is 67.4 °C. For the same compound, the “ΔH (experimental)/ΔH (calculated)” value in data set [1] (20 mol % in SIL-MIX) is 57%. Moreover, in data set [1], the “Exotherm Peak Maximum” value is 16 s and the “Net Enthalpy ΔH” value is −82^b J/g. In addition, the “Polymerization Stress” value in data set [3] is listed as 0.33 (0.15)* N/mm^2. In data set [4] (setting [6]), the Flexural elastic modulus was 2.58 GPa, the “Work of Fracture” value was 5.33 (1.09) kJ/m^2 and the Flexural ultimate strength amounted to 96 MPa.
On to `C[Si]1(CCC2CCC3OC3C2)O[Si](C)(CCC2CCC3OC3C2)O[Si](C)(CCC2CCC3OC3C2)O[Si](C)(CCC2CCC3OC3C2)O1` (centres unmarked) [TET-SIL, 2,4,6,8-tetramethyl-2,4,6,8-tetrakis-[2-(7-oxabicyclo[4.1.0]hept-3-yl)ethyl]-1,3,5,7-tetraoxa-2,4,6,8-tetrasilacyclooxtane, reference compound], for which the “Oxirane Conversion” value in data set [2] (silorane without comonomer) is listed as 13%.
`C=CCOCC1OCC2(CO1)COC(COCC=C)OC2` (centres unmarked) [Monomer 3, 3,9-bis(allyloxymethyl)-2,4,8,10-tetraoxaspiro[5.5]undecane]: in data set [1] (20 mol % in SIL-MIX), the “enthalpies above those calculated for addition of an inert diluent” value was 17% and the “ΔH (experimental)/ΔH (calculated)” value is on record as 117%. In data set [1], the “Exotherm Peak Maximum” value came to 15 s and the “Net Enthalpy ΔH” value is listed as −170^b J/g. Also, in data set [3], the “Polymerization Stress” value is 1.20 (0.17)* N/mm^2. Also, in data set [4] (setting [5]), the “elastic modulus values compared with the methacrylate control (BT)” value was “significantly lower” and the “ultimate strength values compared with the methacrylate control (BT)” value is “significantly lower”. In addition, in data set [4] (setting [6]), the Flexural elastic modulus amounted to 2.13 GPa, the “Work of Fracture” value is 7.17 (1.58) kJ/m^2 and the Flexural ultimate strength turned out to be 87.8 MPa.
As to `C[Si](C)(C)CCCC1COC2(OC1)OCC(CCC[Si](C)(C)C)CO2` (centres unmarked) [Monomer 2, 3,9-bis(3-trimethylsilylpropyl)-1,5,7,11-tetraoxaspiro[5.5]undecane], the “ΔH (experimental)/ΔH (calculated)” value in data set [1] (20 mol % in SIL-MIX) is on record as 54%. Moreover, in data set [1], the “Exotherm Peak Maximum” value is 14 s and the “Net Enthalpy ΔH” value is on record as −78^b J/g. For the same compound, in data set [3], the “Polymerization Stress” value is reported as 0.23 (0.06)* N/mm^2. Also, in data set [4] (setting [5]), the “elastic modulus values compared with the methacrylate control (BT)” value is listed as “significantly lower”, the “ultimate strength values compared with the methacrylate control (BT)” value is on record as “significantly lower” and the “work of fracture values compared with the methacrylate control (BT)” value was “significantly lower”. Further, in data set [4] (setting [6]), the Flexural elastic modulus came to 1.9 GPa, the “Work of Fracture” value is 1.12 (0.42)* kJ/m^2 and the Flexural ultimate strength came out at 42.4 MPa. In addition, the “all mechanical properties, overall comparison (with BT control and among formulations)” value in data set [4] (TOSU monomers 20 mol % in SIL-MIX, SIL-MIX alone) is “lowest mechanical property values”.
